# pIC50: −log10 of the molar value. Several values for one entry are separate records, joined by “and”; a condition that tells them apart may be missing. Equal values may be shown once. Read-outs that look alike come from different tables or passages of the source.
# Key:
# [1] = molecular target: T1, Phosphodiesterase I (PDEI) from Crotalus adamanteus venom (Crotalus adamanteus, UniProt J3SEZ3); type: binding
# Recombinant human PDE5A = Recombinant human PDE5A (Homo sapiens, UniProt O76074); assay: PDE inhibition assay against PDE5A (Cyclic Nucleotide Phosphodiesterase Assay Kit, spectrophotometric); type: biochemical; conditions: in vitro; for pIC50: read-out: Inhibitory activity (IC50) PDE5A
# [2] = molecular target: T1, Phosphodiesterase I (PDEI) from Crotalus adamanteus venom; type: biochemical; conditions: read-out: Inhibitory activity (IC50) PDEI
# T1 sequence (J3SEZ3 24-851 limits assumed): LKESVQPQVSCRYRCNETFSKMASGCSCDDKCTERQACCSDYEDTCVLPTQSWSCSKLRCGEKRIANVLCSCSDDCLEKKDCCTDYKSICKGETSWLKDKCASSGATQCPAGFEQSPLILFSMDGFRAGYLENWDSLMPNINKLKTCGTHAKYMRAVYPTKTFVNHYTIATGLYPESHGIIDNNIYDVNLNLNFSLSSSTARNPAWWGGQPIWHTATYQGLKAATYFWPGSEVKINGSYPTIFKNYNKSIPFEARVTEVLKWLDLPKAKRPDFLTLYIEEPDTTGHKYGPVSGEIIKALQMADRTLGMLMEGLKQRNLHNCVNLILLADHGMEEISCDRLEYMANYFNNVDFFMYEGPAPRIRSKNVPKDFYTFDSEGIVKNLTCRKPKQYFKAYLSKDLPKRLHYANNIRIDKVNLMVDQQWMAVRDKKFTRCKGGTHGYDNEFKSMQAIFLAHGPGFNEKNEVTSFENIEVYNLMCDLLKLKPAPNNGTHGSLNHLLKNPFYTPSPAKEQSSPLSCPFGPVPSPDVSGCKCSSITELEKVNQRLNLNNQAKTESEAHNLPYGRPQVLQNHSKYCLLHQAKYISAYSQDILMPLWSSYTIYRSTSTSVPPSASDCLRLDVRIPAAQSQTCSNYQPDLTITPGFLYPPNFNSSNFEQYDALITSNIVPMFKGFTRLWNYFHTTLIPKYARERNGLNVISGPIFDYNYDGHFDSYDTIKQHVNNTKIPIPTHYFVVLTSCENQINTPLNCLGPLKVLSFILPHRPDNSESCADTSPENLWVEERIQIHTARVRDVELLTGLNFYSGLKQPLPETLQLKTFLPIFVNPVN
SMILES,Enhancement factor with PDEI ([1]; n = 3),pIC50 (Recombinant human PDE5A),Binding to PDEI (in words) [1],Activity against PDE5A (in words) (Recombinant human PDE5A),Enhancement factor with PDEI [1],pIC50 [2]
"O=C(C=Cc1ccc(O)c(O)c1)OC1CC(O)(C(=O)O)CC(O)C1OC(=O)C=Cc1ccc(O)c(O)c1 (centres unmarked) [Isochlorogenic acid B (3), Isochlorogenic acid B]",19.15 ± 0.77% and 25.90 ± 1.30%,3.71,,,,
"O=C(C=Cc1ccc(O)c(O)c1)OC1CC(O)(C(=O)O)CC(O)C1OC(=O)C=Cc1ccc(O)c(O)c1 (centres unmarked) [Isochlorogenic acid C (5), Isochlorogenic acid C]",26.73 ± 0.41% and 40.03 ± 0.14%,,quite strong bindings to PDEI,not active,,
"C[C@@H]1CC[C@]2(C(=O)OC3OC(CO)C(O)C(O)C3O)CC[C@]3(C)C(=CCC4[C@@]5(C)CC[C@H](O)[C@](C)(C(=O)O)C5CC[C@]43C)C2[C@]1(C)O (some centres unmarked) [Ilexsaponin A1(9), Ilexsaponin A1]",11.68 ± 0.31% and 18.59 ± 0.65%,4.65,low binding efficiency,,,
"C[C@H]1CC[C@]2(C(=O)O)CC[C@]3(C)C(=CC[C@@H]4[C@@]5(C)CC[C@H](O[C@@H]6OC[C@@H](O)[C@H](O)[C@H]6O[C@@H]6O[C@H](CO)[C@@H](O)[C@H](O)[C@H]6O)C(C)(C)[C@@H]5CC[C@]43C)[C@@H]2[C@]1(C)O [Ilexsaponin B1 (10), Ilexsaponin B1]",,2.74,,,9.20 ± 0.62% and 15.54 ± 0.21%,3.07
"C[C@@H]1O[C@@H](O[C@H]2[C@H](O[C@H]3[C@H](O[C@H]4CC[C@]5(C)[C@H]6CC=C7[C@H]8[C@](C(=O)O)(CC[C@H](C)[C@@]8(C)O)CC[C@@]7(C)[C@]6(C)CC[C@H]5C4(C)C)OC[C@@H](O)[C@@H]3O)O[C@H](CO)[C@@H](O)[C@@H]2O)[C@H](O)[C@H](O)[C@H]1O [Ilexsaponin B2 (8), Ilexsaponin B2]",,4.31,strongest PDEI ligand,,28.73 ± 0.55% and 41.85 ± 0.86%,3.32
"C[C@@H]1CC[C@]2(C(=O)O)CC[C@]3(C)C(=CCC4[C@@]5(C)CC[C@H](O)[C@](C)(C(=O)O)C5CC[C@]43C)C2[C@]1(C)O (some centres unmarked) [Ilexgenin A (11), Ilexgenin A]",23.08 ± 0.44% and 30.82 ± 0.31%,3.75,,,,
